Results on four compounds are retold here after publication PMC11240878, “Synthesis, enzyme inhibition assay, and molecular modeling study of novel pyrazolines linked to 4-methylsulfonylphenyl scaffold: antitumor activity and cell cycle analysis” (RSC Advances, 2024).

The subject of one series is SNB-75. Put plainly: NCI single-dose GI%, CNS. The note with it: SNB-75, CNS; 10.0 μM in one dose. Format: cell-based, human.
Another series has as its system UACC-257. Nature of the series: NCI single-dose GI%, melanoma. Format: cell-based, human. The following applies: UACC-257, melanoma; 10.0 μM in one dose.
Another series deals with HL-60(TB). Put plainly: NCI single-dose GI%, leukemia. The note with it: 10.0 μM in one dose. Format: cell-based, human.
A further series has as its system K-562. Put plainly: NCI single-dose GI%, leukemia. It counts as cell-based, human. The note with it: K-562, leukemia; 10.0 μM in one dose.
In a further series the test system is NCI-H522. Nature of the series: NCI single-dose GI%, NSC lung. Format: cell-based, human. The note with it: 10.0 μM in one dose.
A further series has as its system EKVX. Nature of the series: NCI single-dose GI%, NSC lung. Format: cell-based, human. The following applies: 10.0 μM in one dose.
The test system of the next series is 59 cancer cell lines. Put plainly: NCI 59 cancer cell line panel, single dose. It counts as cell-based, human. The note with it: 10 μM single dose; for MG% (mean growth percent): 59 cell lines.
A further series has as its system NCI-H226. Put plainly: NCI single-dose GI%, NSC lung. The note with it: 10.0 μM in one dose. It counts as cell-based, human.
Another series relates to MOLT-4. Nature of the series: NCI single-dose GI%, leukemia. Format: cell-based, human. The note with it: MOLT-4, leukemia; 10.0 μM in one dose.
The next series relates to A549/ATCC. Nature of the series: NCI single-dose GI%, NSC lung. Format: cell-based, human. The note with it: 10.0 μM in one dose.
A further series concerns T-47D. Put plainly: NCI single-dose GI%, breast. It counts as cell-based, human. The note with it: 10.0 μM in one dose.
The next series relates to CAKI-1. Put plainly: NCI single-dose GI%, renal. The note with it: CAKI-1, renal; 10.0 μM in one dose. Format: cell-based, human.
The test system of the next series is HOP-62. Put plainly: NCI single-dose GI%, NSC lung. Format: cell-based, human. The following applies: HOP-62, NSC lung; 10.0 μM in one dose.
The next series has as its system HT29. Nature of the series: NCI single-dose GI%, colon. The following applies: 10.0 μM in one dose. It counts as cell-based, human.
The test system of the next series is UO-31. Nature of the series: NCI single-dose GI%, renal. It counts as cell-based, human. The note with it: UO-31, renal; 10.0 μM in one dose.
The subject of another series is MCF7. Nature of the series: NCI single-dose GI%, breast. It counts as cell-based, human. The note with it: 10.0 μM in one dose.
A further series relates to BT-549. Put plainly: NCI single-dose GI%, breast. The note with it: BT-549, breast; 10.0 μM in one dose. Format: cell-based, human.
Another series relates to PC-3. Nature of the series: NCI single-dose GI%, prostate. It counts as cell-based, human. The note with it: PC-3, prostate; 10.0 μM in one dose.
For the next series, the system named is RPMI-8226. Nature of the series: NCI single-dose GI%, leukemia. The note with it: RPMI-8226, leukemia; 10.0 μM in one dose. It counts as cell-based, human.
The next series deals with HCT-116. Nature of the series: NCI single-dose GI%, colon. Format: cell-based, human. The note with it: HCT-116, colon; 10.0 μM in one dose.

SMILES strings stand for the structures. Several values for one entry are separate records, joined by “and”; a condition that tells them apart may be missing. Equal values may be shown once. Some results are limits rather than exact numbers.

For orientation: melting point means the temperature of the solid-liquid transition. Compound `COc1ccc(C2CC(c3ccccc3)=NN2C(=O)c2ccc(S(C)(=O)=O)cc2)cc1` (stereo not drawn) [Compound 18j, (5-(4-Methoxyphenyl)-3-phenyl-4,5-dihydro-1H-pyrazol-1-yl)(4-(methylsulfonyl)phenyl)methanone] returned a melting point of 258 to 260 °C. The GI% with SNB-75 is on record as 12%. In the series on UACC-257, the GI% worked out at 14%. This compound also returned a GI% with HL-60(TB) of 35%. The same compound showed a GI% with K-562 of 13%. In the series with NCI-H522, this compound returned a GI% of 14%. The GI% with EKVX amounted to 12%. In the series on 59 cancer cell lines, the “PCE (positive cytotoxic effect: ratio of cell lines with growth inhibition >10% to total cell lines)” value was 10/59 and the “MG% (mean growth percent)” value is listed as 97.16%. The GI% in the series with NCI-H226 was determined as 11%. For the same compound, the GI% in the series on MOLT-4 amounted to 26%. Also, the GI% in the series with A549/ATCC is 24%. In the series with T-47D, this compound yielded a GI% of 16%.
Turning to `COc1ccccc1C1CC(c2ccccc2)=NN1C(=O)c1ccc(S(C)(=O)=O)cc1` (stereo not drawn) [Compound 18i, (5-(2-Methoxyphenyl)-3-phenyl-4,5-dihydro-1H-pyrazol-1-yl)(4-(methylsulfonyl)phenyl)methanone], the melting point lay within 236 to 238 °C. Further, the GI% with UACC-257 is recorded as 36%. The compound further registered a GI% with HL-60(TB) of 46%. Also, the GI% in the series on NCI-H522 was 29%. In the series with EKVX, this compound displayed a GI% of 12%. In addition, the GI% in the series with CAKI-1 worked out at 23%. The GI% with HOP-62 was determined as 20%. For the same compound, in the series with 59 cancer cell lines, the “PCE (positive cytotoxic effect: ratio of cell lines with growth inhibition >10% to total cell lines)” value was ≤ 12/59 and 12/59; the “MG% (mean growth percent)” value worked out at 96.46%. Besides, the GI% with NCI-H226 worked out at 13%. The compound further came in with a GI% with MOLT-4 of 28%. Besides, the GI% in the series on A549/ATCC amounted to 35%. Also, the GI% with T-47D is listed as 17%. The same compound registered a GI% in the series with HT29 of 17%. Moreover, the GI% with UO-31 was determined as 28%.
With `COc1ccc(C2=NN(C(=O)c3ccc(S(C)(=O)=O)cc3)C(c3ccc(OC)cc3)C2)cc1` (stereo not drawn) [Compound 18l, (3,5-Bis(4-methoxyphenyl)-4,5-dihydro-1H-pyrazol-1-yl)(4-(methylsulfonyl)phenyl)methanone], the melting point lay within 198 to 200 °C. In the series on SNB-75, the GI% was 11%. The compound also returned a GI% with MCF7 of 11%. The GI% in the series on UACC-257 is given as 45%. In the series on HL-60(TB), this compound displayed a GI% of 47%. The GI% in the series on K-562 is 18%. This compound also displayed a GI% in the series on NCI-H522 of 34%. The same compound showed a GI% in the series with BT-549 of 13%. The same compound yielded a GI% with CAKI-1 of 14%. The compound further yielded a GI% with HOP-62 of 11%. Further, in the series with 59 cancer cell lines, the “PCE (positive cytotoxic effect: ratio of cell lines with growth inhibition >10% to total cell lines)” value was 14/59 and the “MG% (mean growth percent)” value was 95.78%. The compound also had a GI% with MOLT-4 of 33%. The compound further returned a GI% in the series with A549/ATCC of 40%. Moreover, the GI% in the series on T-47D turned out to be 11%. In the series with HT29, this compound showed a GI% of 19%. In addition, in the series with UO-31, the GI% is recorded as 16%.
Consider `CS(=O)(=O)c1ccc(C(=O)N2N=C(c3ccc(F)cc3)CC2c2ccc(F)cc2)cc1` (stereo not drawn) [Compound 18e, (3,5-Bis(4-fluorophenyl)-4,5-dihydro-1H-pyrazol-1-yl)(4-(methylsulfonyl)phenyl)methanone], for which the melting point lay in the range of 330 to 333 °C. In addition, in the series on SNB-75, the GI% turned out to be 18%. Besides, the GI% in the series on PC-3 is on record as 15%. The compound further yielded a GI% in the series with MCF7 of 13%. In the series on RPMI-8226, this compound registered a GI% of 12%. The GI% in the series with HL-60(TB) worked out at 48%. In the series with K-562, the GI% turned out to be 29%. The compound further registered a GI% with HCT-116 of 17%. In the series with NCI-H522, this compound had a GI% of 15%. This compound showed a GI% in the series on EKVX of 12%. This compound came in with a GI% in the series with CAKI-1 of 17%. The same compound displayed a GI% in the series with HOP-62 of 14%. Besides, in the series on 59 cancer cell lines, the “PCE (positive cytotoxic effect: ratio of cell lines with growth inhibition >10% to total cell lines)” value is recorded as 15/59 and the “MG% (mean growth percent)” value is on record as 94.18%. The compound also came in with a GI% in the series on NCI-H226 of 12%. The same compound yielded a GI% in the series on MOLT-4 of 35%. In the series with T-47D, the GI% was found to be 17%. Also, the GI% with UO-31 is reported as 22%.
